Source: US20260248809A1, “ESTRADIOL PRODRUGS AND METHODS OF USE THEREOF” (UNIVERSITY OF MARYLAND, BALTIMORE, priority 2022, published 2026)

Experiments:
C3 expression = conditions: rat, in vivo; cited from earlier work
[1] = tested on: TRPM-2, ODC, AR and ERα expression; conditions: in vivo; cited from earlier work
[2] = tested on: ERβ-expressing BLA-to-NAc neurons; experiment: cFos immunofluorescence of ERβ projections to the NAc after E2 and SSDS; format: in vivo, mouse

For `C[C@]12CC[C@@H]3c4ccc(O)cc4CC[C@H]3[C@@H]1CC[C@@H]2O` [Example E2, 17β-Estradiol], the “uterus C3 expression” value (C3 expression) is given as “increases C3 expression”, the “expression of TRPM-2, ODC, AR and ERα in the prostate gland” value [1] is given as “decreases in the expression” and the “activation of ERβ-expressing BLA-to-NAc neurons (c-Fos)” value ([2]; orchiectomized mice, acute treatment prior to SSDS) is given as “activated at a significantly higher degree”. For the same compound, the “activation of the other strong ERβ-projections to the NAc (c-Fos)” value ([2]; prefrontal, cingulate and insular cortex projections) was “activation of any of the other strong ERβ-projections to the NAc in response to E2 was observed”.
